Reference: patent publication US20070232615A1, “Chemical Compounds” (priority 2004, published 2007)
pIC50: −log10 of the molar value.

What was measured:
Assay type in all cases: cell-based
[1] = Compound cytotoxicity in the absence of virus (CellTiter-Glo); settings: human; HOS cells, no virus; read-out: Cytotox (pIC50) (converted)
Procedure: (§1) Compounds were profiled against two HIV-1 viruses, the M-tropic (CCR5 utilizing) Ba-L strain and the T-tropic (CXCR4 utilizing) IIIB strain. Both viruses were propagated in human peripheral blood lymphocytes. Compounds were tested for there ability to block infection of the HOS cell line (expressing hCXCR4/hCCR5/hCD4/pHIV-LTR-luciferase) by either HIV-1 Ba-L or HIV-1 IIIB. Compound cytotoxicity was also examined in the absence of virus addition.
(§2) HOS cells (expressing hCXCR4/hCCR5/hCD4/pHIV-LTR-luciferase) were harvested and diluted in Dulbeccos modified Eagles media supplemented with 2% FCS and non-essential amino acid to a concentration of 60,000 cells/ml. The cells were plated into 96-well plates (100 ul per well) and the plates were placed in a tissue culture incubator (37° C.; 5% CO2/95% air) for a period of 24 h.
(§3) Subsequently, 50 ul of the desired drug solution (4 times the final concentration) was added to each well and the plates were returned to the tissue culture incubator (37° C.; 5% CO2/95% air) for 1 h. Following this incubation 50 ul of diluted virus was added to each well (approximately 2 million RLU per well of virus). The plates were returned to the tissue culture incubator (37° C.; 5% CO2/95% air) and were incubated for a further 96 h.
(§4) Following this incubation the endpoint for the virally infected cultures was quantified following addition of Steady-Glo Luciferase assay system reagent (Promega, Madison, Wis.). Cell viability or non-infected cultures was measured using a CellTiter-Glo luminescent cell viability assay system (Promega, Madison, Wis.). All luminescent readouts are performed on a Topcount luminescence detector (Packard, Meridien, Conn.).

HIV-1 IIIB = experiment: HOS HIV-1 infectivity assay, IIIB strain; settings: Human immunodeficiency virus 1; HOS cells, HIV-1 IIIB (T-tropic, CXCR4 utilizing), 96 h; read-out: HOS (3B)
Procedure: HOS HIV-1 Infectivity Assay
as §1
HOS HIV-1 Infectivity Assay Format
as §2, §3, §4

human CXCR4 = molecular target: T1, human CXCR4 (Homo sapiens, UniProt P61073); experiment: Functional FLIPR assay (block of SDF-1 alpha induced [Ca2+]i change); settings: HEK-293 cells with human CXCR4 and Gqi5 BacMam; antagonism of SDF-1 alpha; read-out: Functional assay (pIC50) (converted)
T1 construct: expressed in transfected cells; host or cells: HEK-293 cells (stably expressing human macrophage scavenger receptor class A type 1), transduced with human CXCR4 BacMam and Gqi5 BacMam baculoviruses
Procedure: Human embryonic kidney (HEK-293) cells were maintained and harvested as described above. Cells were plated in 96-well, black clear bottom, poly-lysine coated plates at a concentration of 40,000 cells per well in a final volume of 100 ul containing human CXCR4 BacMam (MOI=25) and Gqi5 BacMam (MOI=12.5). The cells were incubated at 37° C., 5% CO2, 95% humidity for 24 h to allow for protein expression.
After the required incubation time the cells were washed once with 50 ul of fresh serum-free DMEM/F12 media containing probenicid. 50 ul of dye solution was then added to the cells (Calcium Plus Assay Kit Dye; Molecular Devices) was dissolved in 200 ml of the above probenicid/BSA containing media and incubated for 1 h. Cell plates were transferred to a Fluorometric Imaging Plate Reader (FLIPR). Upon addition the effect of the compounds on the change in [Ca^2+]i was examined to determine if the compounds were agonists or antagonists (ability to block SDF-1 alpha activity) at the CXCR4 receptor. IC50 values are determined and pKb values are calculated using the Leff and Dougall equation: KB=IC50/((2+([agonist]/EC50ˆb)ˆ1/b−1) Where IC50 is that defined by the antagonist concentration-response curve [agonist] is the EC80 concentration of agonist used EC50 is that defined by the agonist concentration-response curve b is the slope of the agonist concentration-response curve.

[2] = tested on: HOS (hCXCR4/hCCR5/hCD4/pHIV-LTR-luciferase) cells and HEK-293 cells expressing HIV-1 gp160 (HXB2 strain); experiment: Cell/cell fusion assay (luciferase); settings: Homo sapiens, HEK293; 24 h, luciferase readout; read-out: Fusion assay (pIC50) (converted)
From the text: The complete coding sequences of HIV-1 tat (GenBank Accession No. X07861) and rev (GenBank Accession No. M34378) were cloned into pcDNA3.1 expression vectors containing G418 and hygromycin resistance genes, respectively. The complete coding sequence of the HIV-1 (HXB2 strain) gp160 envelope gene (nucleotide bases 6225-8795 of GenBank Accession No. K03455) was cloned into plasmid pCRII-TOPO. The three HIV genes were additionally inserted into the baculovirus shuttle vector, pFastBacMam1, under the transcriptional control of the CMV promoter. A construction of the pHIV-I LTR containing mutated NFkB sequences linked to the luciferase reporter gene was prepared by digesting pcDNA3.1, containing the G418 resistance gene, with Nru I and Bam HI to remove the CMV promoter. LTR-luc was then cloned into the Nru I/Bam HI sites of the plasmid vector. Plasmid preparations were performed after the plasmids were amplified in Escherichia coli strain DH5-alpha. The fidelity of the inserted sequences was confirmed by double-strand nucleotide sequencing using an ABI Prism Model 377 automated sequencer.
BacMam Baculovirus Generation
Recombinant BacMam baculoviruses were constructed from pFastBacMam shuttle plasmids by using the bacterial cell-based Bac-to-Bac system. Viruses were propagated in Sf9 (Spodoptera frugiperda) cells cultured in Hink's TNM-FH Insect media supplemented with 10% (v/v) fetal bovine serum and 0.1% (v/v) pluronic F-68 according to established protocols.
Human osteosarcoma (HOS) cells that naturally express human CXCR4 were transfected with human CCR5, human CD4 and the pHIV-LTR-luciferase plasmid using FuGENE 6 transfection reagent. Single cells were isolated and grown under selection condition in order to generate a stable HOS (hCXCR4/hCCR5/hCD4/pHIV-LTR-luciferase) clonal cell line. The cells were maintained in Dulbeccos modified Eagles media supplemented with 10% fetal calf serum (FCS), G418 (400 ug/ml), puromycin (1 ug/ml), mycophenolic acid (40 ug/ml), xanthine (250 ug/ml) and hypoxanthine (13.5 ug/ml) to maintain a selection pressure for cells expressing the LTR-luciferase, hCCR5 and hCD4, respectively. Human embryonic kidney (HEK-293) cells stably transfected to express the human macrophage scavenging receptor (Class A, type 1; GenBank Accession No. D90187), were maintained in DMEM/F-12 media (1:1) supplemented with 10% FCS and 1.5 ug/ml puromycin. The expression of this receptor by the HEK-293 cells enhances their ability to stick to tissue culture treated plasticware.
Transduction of HEK-293 cells
HEK-293 cells were harvested using enzyme-free cell dissociation buffer. The cells were resuspended in DMEM/F-12 media supplemented with 10% FCS and 1.5 ug/ml and counted. Tranductions were performed by direct addition of BacMam baculovirus containing insect cell media to cells. The cells were simultaneously transduced with BacMam baculovirus expressing HIV-1 tat, HIV-1 rev and HIV-1 gp160 (from the HXB2 HIV strain). Routinely an MOI of 10 of each virus was added to the media containing the cells. 2 mM butyric acid was also added to the cells at this stage to increase protein expression in transduced cells. The cells were subsequently mixed and seeded into a flask at 30 million cells per T225. The cells were incubated at 37° C., 5% CO2, 95% humidity for 24 h to allow for protein expression.
Cell/Cell Fusion Assay Format
HEK and HOS cells were harvested in DMEM/F-12 media containing 2% FCS and DMEM media containing 2% FCS, respectively, with no selection agents added. Compounds were plated as 1 ul spots in 100% DMSO on a 96-well CulturPlate plates. HOS cells (50 ul) were added first to the wells, followed immediately by the HEK cells (50 ul). The final concentration of each cell type was 20,000 cells per well. Following these additions, the cells were returned to a tissue culture incubator (37° C.; 5% CO2/95% air) for an additional 24 h.
Measurement of Luciferase Production […]

HIV = experiment: HOS HIV infectivity assay (Table 2, strain not given); settings: Human immunodeficiency virus 1, read-out: Activity Level
Procedure, shortened: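 HOS cells expressing hCXCR4/hCCR5/hCD4 and an HIV-LTR-luciferase reporter were preincubated with compound for 1 h in DMEM/2% FCS. They were then infected with HIV-1 Ba-L or IIIB (about 2 million RLU/well) for 96 h at 37° C. Infection was read by luciferase luminescence, and viability in uninfected cultures by CellTiter-Glo.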

T1 sequence (P61073 whole entry): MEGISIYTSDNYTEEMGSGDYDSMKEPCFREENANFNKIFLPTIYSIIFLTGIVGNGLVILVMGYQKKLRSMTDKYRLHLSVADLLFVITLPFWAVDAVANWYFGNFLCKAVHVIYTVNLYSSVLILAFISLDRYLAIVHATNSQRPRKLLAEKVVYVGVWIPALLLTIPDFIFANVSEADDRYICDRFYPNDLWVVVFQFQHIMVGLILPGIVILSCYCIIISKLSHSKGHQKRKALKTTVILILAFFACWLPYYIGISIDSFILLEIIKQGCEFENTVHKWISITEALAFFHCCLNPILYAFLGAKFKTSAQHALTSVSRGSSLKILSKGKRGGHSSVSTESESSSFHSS

SMILES | IC50 at 96 h [1] [µM] | pIC50 (HIV-1 IIIB) | IC50 (human CXCR4) [nM] | IC50 [2] [nM] | pIC50 (HIV)
CN1CCN(c2cccc3nc(CN(C)C4CCCc5cccnc54)cn23)CC1 (stereo not drawn) [Example 6, N-Methyl-N-{[5-(4-methyl-1-piperazinyl)imidazo[1,2-a]pyridin-2-yl]methyl}-5,6,7,8-tetrahydro-8-quinolinamine] | > 100 | 8.20 | 7.94 | 3.31 | > 7.00
CCN1CCN(c2cccc3nc(CN(C)C4CCCc5cccnc54)cn23)CC1 (stereo not drawn) [Example 7, N-{[5-(4-Ethyl-1-piperazinyl)imidazo[1,2-a]pyridin-2-yl]methyl}-N-methyl-5,6,7,8-tetrahydro-8-quinolinamine] | > 100 | 7.96 | 6.92 | 11.2 | > 7.00
CC(C)N1CCN(c2cccc3nc(CN(C)C4CCCc5cccnc54)cn23)CC1 (stereo not drawn) [Example 8, N-Methyl-N-({5-[4-(1-methylethyl)-1-piperazinyl]imidazo[1,2-a]pyridin-2-yl}methyl)-5,6,7,8-tetrahydro-8-quinolinamine] | > 100 | 7.80 | 9.77 | 22.4 | > 7.00
CN(Cc1cn2c(N3CCN(C(=O)OC(C)(C)C)CC3)cccc2n1)C1CCCc2cccnc21 (stereo not drawn) [Example 9, 1,1-Dimethylethyl 4-(2-{[methyl(5,6,7,8-tetrahydro-8-quinolinyl)amino]methyl}imidazo[1,2-a]pyridin-5-yl)-1-piperazinecarboxylate] | > 100 | 6.52 | 363 | 912 | –
CN(Cc1cn2c(N3CCNCC3)cccc2n1)C1CCCc2cccnc21 (stereo not drawn) [Example 10, N-Methyl-N-{[5-(1-piperazinyl)imidazo[1,2-a]pyridin-2-yl]methyl}-5,6,7,8-tetrahydro-8-quinolinamine] | > 100 | 7.70 | 6.92 | 17.8 | > 7.00
CN(C)CCN(C)c1cccc2nc(CN(C)C3CCCc4cccnc43)cn12 (stereo not drawn) [Example 11, N,N,N′-Trimethyl-N′-(2-{[methyl(5,6,7,8-tetrahydro-8-quinolinyl)amino]methyl}imidazo[1,2-a]pyridin-5-yl)-1,2-ethanediamine] | > 100 | 7.49 | 33.9 | 67.6 | > 7.00
CC1CN(c2cccc3nc(CN(C)C4CCCc5cccnc54)cn23)CC(C)N1 (stereo not drawn) [Example 12, N-{[5-(3,5-Dimethyl-1-piperazinyl)imidazo[1,2-a]pyridin-2-yl]methyl}-N-methyl-5,6,7,8-tetrahydro-8-quinolinamine] | > 100 | 7.06 | 28.2 | 166 | > 7.00
CC1CN(c2cccc3nc(CN(C)C4CCCc5cccnc54)cn23)CC(C)N1C (stereo not drawn) [Example 13, N-Methyl-N-{[5-(3,4,5-trimethyl-1-piperazinyl)imidazo[1,2-a]pyridin-2-yl]methyl}-5,6,7,8-tetrahydro-8-quinolinamine] | > 100 | 7.21 | 18.2 | 77.6 | > 7.00
CC(C)N(Cc1cn2c(N3CCN(C)CC3)cccc2n1)C1CCCc2cccnc21 (stereo not drawn) [Example 14, N-(1-Methylethyl)-N-{[5-(4-methyl-1-piperazinyl)imidazo[1,2-a]pyridin-2-yl]methyl}-5,6,7,8-tetrahydro-8-quinolinamine] | > 100 | 7.89 | 2 | 21.9 | > 7.00
CC(C)N1CCN(c2cccc3nc(CN(C(C)C)C4CCCc5cccnc54)cn23)CC1 (stereo not drawn) [Example 15, N-(1-Methylethyl)-N-({5-[4-(1-methylethyl)-1-piperazinyl]imidazo[1,2-a]pyridin-2-yl}methyl)-5,6,7,8-tetrahydro-8-quinolinamine] | > 100 | 7.42 | 3.63 | 79.4 | > 7.00
CN1CCN(c2cccc3nc(CN(CC(F)(F)F)C4CCCc5cccnc54)cn23)CC1 (stereo not drawn) [Example 16, N-{[5-(4-Methyl-1-piperazinyl)imidazo[1,2-a]pyridin-2-yl]methyl}-N-(2,2,2-trifluoroethyl)-5,6,7,8-tetrahydro-8-quinolinamine] | > 100 | 6.84 | 4.37 | 417 | 6.30 to 7.00
